Where a SMILES comes first, the peptide text is derived from it. Bridges are numbered along the chain shown (N, C = ends). [ ]: non-standard residue; d: D form. 2Nal = N[C@@H](Cc1ccc2ccccc2c1)C(=O)O; d2Nal = N[C@H](Cc1ccc2ccccc2c1)C(=O)O
Columns and labels:
NMB receptor [1] = target: T1, NMB receptor (Rattus norvegicus, UniProt P24053); test: NMB membrane receptor assay, 125I-NMB, rat olfactory bulb membranes; type: binding; design: Membranes were prepared from rat olfactory bulb (NMB membrane receptor assay); from tissue; host or cells: rat olfactory bulb membranes; details: for Ki: Cheng method, unit inferred, read-out: affinity, 125I-NMB, Rat Olfactory bulb membranes (neuromedin B receptors)
T1 sequence (P24053 1-390): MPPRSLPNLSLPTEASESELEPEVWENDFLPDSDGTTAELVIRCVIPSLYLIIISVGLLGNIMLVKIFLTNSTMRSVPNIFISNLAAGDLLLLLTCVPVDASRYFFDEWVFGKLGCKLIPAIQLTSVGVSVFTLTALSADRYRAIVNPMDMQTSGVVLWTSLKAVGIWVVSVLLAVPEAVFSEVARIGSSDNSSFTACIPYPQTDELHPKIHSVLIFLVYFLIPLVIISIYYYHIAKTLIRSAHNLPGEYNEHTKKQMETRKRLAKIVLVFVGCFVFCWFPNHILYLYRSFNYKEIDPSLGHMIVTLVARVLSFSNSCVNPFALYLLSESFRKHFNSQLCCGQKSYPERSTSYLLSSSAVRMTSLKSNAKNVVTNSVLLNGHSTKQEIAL

[2] = target: T2, benzodiazepine-peripheral receptor (Rattus norvegicus, UniProt P16257); test: Peripheral benzodiazepine membrane receptor assay, rat cerebral cortex; type: binding; details: 1 μM
T2 construct: from tissue; host or cells: rat cerebral cortex membranes

delta opioid receptor = target: T3, delta opioid receptor (Rattus norvegicus, UniProt P33533); test: Delta opioid membrane assay, rat forebrain; type: binding; details: 1 μM
T3 construct: rat forebrain (TRH, mu and delta opioid membrane assays); from tissue; host or cells: rat forebrain membranes

β1-adrenergic receptor = target: T4, β1-adrenergic receptor (Homo sapiens, UniProt P08588); test: β1-adrenergic membrane receptor assay, [3H]dihydroalprenolol; type: binding; details: 1 μM
T4 construct: receptors on plasma membranes on various tissues determined as described in METHODS; from tissue; host or cells: plasma membranes

[3] = tested on: GRP receptors on rat pancreatic acini; test: Binding of 125I-[Tyr4]bombesin to pancreatic acini; details: NMB-R transfected cells vs GRP-R on rat pancreatic acini
Text: Nonsaturable binding was<10% of total binding in all experiments.

TRH receptor = test: TRH membrane assay, rat forebrain; type: binding; details: 1 μM
rat NMB receptor = target: T5, rat NMB receptor (Rattus norvegicus, UniProt P24053); test: Binding of 125I-[D-Tyr0]NMB to NMB-R transfected BALB 3T3 cells; details: for Ki: NMB-R transfected BALB 3T3 cells, Ki by Cheng method, read-out: Ki 125I-NMB Binding, NMB Receptor, Transfected Cells
T5 construct: a full length NMB-preferring bombesin receptor clone generated from rat esophagus; expressed in transfected cells
T5 sequence (P24053 1-390): T1 sequence (P24053 1-390)

[4] = tested on: benzodiazepine-neural receptor; test: Neural benzodiazepine membrane receptor assay, rat cerebral cortex; type: binding; details: 1 μM
sigma opioid receptor = target: T6, sigma opioid receptor (Cavia porcellus, UniProt Q60492); test: Sigma opioid membrane receptor assay, guinea pig cerebral; type: binding; details: 1 μM
T6 construct: guinea pig cerebral (N1, histamine H1, and sigma opioid membrane receptor assays); from tissue; host or cells: guinea pig cerebral membranes

CCKB = target: T7, CCKB (Rattus norvegicus, UniProt P30553); test: CCKB membrane receptor assay, rat cerebral cortex; type: binding; details: 1 μM
T7 construct: rat cerebral cortex (CCKB, PYY, neurotensin,; from tissue; host or cells: rat cerebral cortex membranes

[5] = tested on: muscarinic cholinergic receptor; test: Muscarinic cholinergic membrane receptor assay, rat cerebral cortex; type: binding; details: 1 μM
GRP receptor = GRP receptor (Rattus norvegicus, UniProt P52500); test: GRP membrane receptor assay, 125I-[Tyr4]Bn, AR 42J cell membranes; type: binding; design: endogenous in cells; host or cells: rat AR 42J pancreatic acinar tumor cell membranes; details: read-out: affinity, 125I-[Tyr4]Bn, AR 42J Cell Membranes (GRP receptors); Cheng method; unit inferred
[6] = tested on: endothelin-1-stimulated increases in [3H]IP; test: Endothelin-1-stimulated [3H]IP in C-6 glioblastoma cells; type: cell-based, rat
Experimental: (§1) Total phosphoinositides in C-6 cells and in NMB-R transfected cells were determined as described previously, with minor modifications [Benya, R. V. et al. Mol. Pharmacol. 42:1058 (1992); and Wang, L-H. et al. Biochem. Jo 286:641 (1992)]. Cells were grown to confluence in 24-well plates and then loaded with 100 μCi/ml myo-[2-^3 H]inositol in Dulbecco's modified essential medium with 2% fetal bovine serum at 37° C. for 48 hrs. Cells were washed and incubated in phosphoinositide buffer (standard buffer additionally containing 10 mM LiCl, 20 mM HEPES, 2 mM CaCl2, 2% BSA, and 1.2 mM MgSO4) for 15 min and then for 60 min at 37° C. with agonists at various concentrations or with 3 nM NMB (a half-maximal effective concentration) and possible antagonists at different concentrations. Reactions were halted using ice-cold 1% HCl in methanol, and the inositol phosphates (IP) were isolated as described previously [Bologna, M. et al. Cancer 63:1714 (1989); and Endo, T. et al. J. Endocrinolo 131:313 (1991)]. Briefly, after loading of the anion exchange column, free [^3 H]glycerophosphorylinositol was removed by washing with 5 mM disodium tetraborate in 60 mM sodium formate. Total [^3 H]inositol phosphates were then eluted using 100 mM formic acid in 1.0M ammonium formate as described previously [Benya, R. V. et al. Mol. Pharmacol. 42:1058 (1992); and Wang, L-H. et al. Biochem. J. 286:641 (1992 )].
(§2) without SSoctapeptide analog added. C6 glioblastoma cells (50,000
(§3) cells/well) were incubated with myo[2^3 H]inositol for two days,
(§4) washed and then incubated with or without the indicated peptides for 60
(§5) minutes at 37° C. in phosphoinositide buffer containing 10 mM LiCl
(§6) as described in METHODS. [^3 H]IP was measured using Dowex AG1X8 anio

PYY receptor = test: PYY membrane receptor assay, rat cerebral cortex; type: binding; details: 1 μM
NMB receptor [7] = target: T1, NMB receptor; test: [3H]IP in C-6 glioblastoma cells (alone or NMB-stimulated); type: cell-based; design: a full length NMB-preferring bombesin receptor clone generated from rat esophagus; expressed in transfected cells
Experimental: as §1, §2, §3, §4, §5, §6

α2-adrenergic receptor = test: α2-adrenergic membrane receptor assay, rat cerebral cortex; type: binding; details: 1 μM

GRP receptor, sequence (P52500 whole entry): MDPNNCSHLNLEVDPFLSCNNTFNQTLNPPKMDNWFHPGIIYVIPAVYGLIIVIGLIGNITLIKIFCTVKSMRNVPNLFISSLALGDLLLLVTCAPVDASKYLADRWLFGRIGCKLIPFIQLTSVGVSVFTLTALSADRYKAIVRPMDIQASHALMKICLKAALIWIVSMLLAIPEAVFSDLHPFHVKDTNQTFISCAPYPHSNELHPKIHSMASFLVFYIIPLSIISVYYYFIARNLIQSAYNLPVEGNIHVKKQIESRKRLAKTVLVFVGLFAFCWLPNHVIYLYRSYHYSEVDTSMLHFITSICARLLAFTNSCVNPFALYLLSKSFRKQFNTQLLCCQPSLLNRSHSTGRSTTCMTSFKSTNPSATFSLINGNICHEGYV
T7 sequence (P30553 whole entry): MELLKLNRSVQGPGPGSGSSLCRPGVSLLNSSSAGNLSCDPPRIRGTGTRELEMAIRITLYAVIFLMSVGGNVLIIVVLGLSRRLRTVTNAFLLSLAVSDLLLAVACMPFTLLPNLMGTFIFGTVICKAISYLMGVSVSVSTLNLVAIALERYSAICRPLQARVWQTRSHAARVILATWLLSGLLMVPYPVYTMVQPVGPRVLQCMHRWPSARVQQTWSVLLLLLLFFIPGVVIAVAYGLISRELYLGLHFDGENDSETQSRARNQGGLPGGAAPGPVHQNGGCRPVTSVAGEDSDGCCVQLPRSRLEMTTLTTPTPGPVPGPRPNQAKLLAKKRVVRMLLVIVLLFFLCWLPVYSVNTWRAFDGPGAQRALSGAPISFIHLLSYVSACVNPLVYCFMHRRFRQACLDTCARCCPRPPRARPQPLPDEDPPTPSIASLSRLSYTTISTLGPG
T4 sequence (P08588 whole entry): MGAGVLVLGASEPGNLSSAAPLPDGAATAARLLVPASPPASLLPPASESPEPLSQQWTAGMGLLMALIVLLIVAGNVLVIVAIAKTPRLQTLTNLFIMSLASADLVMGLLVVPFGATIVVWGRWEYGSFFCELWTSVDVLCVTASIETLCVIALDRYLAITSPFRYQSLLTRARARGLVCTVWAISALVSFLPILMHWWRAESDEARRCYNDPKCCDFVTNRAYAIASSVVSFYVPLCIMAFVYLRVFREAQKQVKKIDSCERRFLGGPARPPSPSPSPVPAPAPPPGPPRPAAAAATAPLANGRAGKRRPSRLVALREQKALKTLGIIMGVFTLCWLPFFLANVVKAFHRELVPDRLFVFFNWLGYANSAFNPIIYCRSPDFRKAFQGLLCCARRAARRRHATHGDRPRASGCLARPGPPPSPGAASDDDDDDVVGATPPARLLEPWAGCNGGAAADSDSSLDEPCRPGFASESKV
T6 sequence (Q60492 whole entry): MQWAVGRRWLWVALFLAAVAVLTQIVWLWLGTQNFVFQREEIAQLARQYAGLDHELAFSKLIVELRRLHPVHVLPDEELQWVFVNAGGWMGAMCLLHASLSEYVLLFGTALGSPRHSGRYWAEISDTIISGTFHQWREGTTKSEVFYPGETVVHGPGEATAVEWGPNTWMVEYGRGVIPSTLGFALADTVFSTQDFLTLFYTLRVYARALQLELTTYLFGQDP
T2 sequence (P16257 whole entry): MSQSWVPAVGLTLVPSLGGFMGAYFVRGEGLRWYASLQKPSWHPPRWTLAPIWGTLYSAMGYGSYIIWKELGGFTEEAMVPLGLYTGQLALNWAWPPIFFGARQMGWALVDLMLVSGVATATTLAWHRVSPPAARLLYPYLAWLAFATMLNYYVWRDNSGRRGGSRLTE
T3 sequence (P33533 whole entry): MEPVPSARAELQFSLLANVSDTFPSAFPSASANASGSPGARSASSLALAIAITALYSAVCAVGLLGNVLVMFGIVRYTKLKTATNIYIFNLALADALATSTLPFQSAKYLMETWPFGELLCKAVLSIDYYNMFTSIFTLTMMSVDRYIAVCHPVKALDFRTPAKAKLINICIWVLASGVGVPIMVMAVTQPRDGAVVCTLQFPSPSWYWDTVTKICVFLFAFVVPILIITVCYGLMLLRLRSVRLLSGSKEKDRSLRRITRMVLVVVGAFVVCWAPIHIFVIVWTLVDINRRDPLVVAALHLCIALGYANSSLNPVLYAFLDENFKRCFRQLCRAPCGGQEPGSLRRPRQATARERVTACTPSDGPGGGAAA

## CC(C)[C@@H]1NC(=O)[C@H](CCCCN)NC(=O)[C@@H](Cc2c[nH]c3ccccc23)NC(=O)[C@H](Cc2ccc(O)cc2)NC(=O)[C@@H](NC(=O)[C@H](N)Cc2ccc3ccccc3c2)CSSC[C@@H](C(=O)N[C@@H](Cc2ccc3ccccc3c2)C(N)=O)NC1=O [Analog #1, H2 -D-Nal-Cys-Tyr-D-Trp-Lys-Val-Cys-Nal-NH2] (H-[d2Nal]CY[dW]KVC[2Nal]-NH2; disulfide 2-7)
NMB receptor [1]
  Ki: 43 ± 9 nM
NMB receptor [1]; membranes, Table 4
  fold greater affinity for NMB receptors than mu opioid receptors: 10 fold
[2]
  inhibition of binding to benzodiazepine-peripheral receptors: did not inhibit binding
Delta opioid receptor
  inhibition of binding to delta opioid receptors: did not inhibit binding
β1-adrenergic receptor
  inhibition of binding to β1-adrenergic receptors: did not inhibit binding
[3]
  fold greater affinity for NMB than GRP receptors: 84 fold
[3]; listed as cyclo SS-octa
  fold greater affinity for NMB than GRP receptors: 100 fold
TRH receptor
  inhibition of binding to TRH receptors: did not inhibit binding
Rat NMB receptor; NMB-R transfected 3T3 cells, read-out: Kd, inhibition of 125I-[D-Tyr0]NMB binding, NMB-R transfected 3T3 cells
  Kd: 216 nM
Rat NMB receptor
  Ki: 216 ± 36 nM
Rat NMB receptor; NMB-R transfected cells
  concentration causing complete inhibition of 125I-NMB binding: 3 µM
  concentration causing detectible inhibition of 125I-NMB binding: 0.1 µM
Rat NMB receptor; NMB-R transfected cells, 0.5 μM
  type of antagonism: competitive antagonist
Rat NMB receptor; NMB-R transfected cells, read-out: half-maximal inhibition of 125I-NMB binding
  IC50: 216 nM
[4]
  inhibition of binding to benzodiazepine-neural receptors: did not inhibit binding
Sigma opioid receptor
  inhibition of binding to sigma opioid receptors: did not inhibit binding
CCKB
  inhibition of binding to CCKB receptors: did not inhibit binding
[5]
  inhibition of binding to muscarinic cholinergic receptors: did not inhibit binding
GRP receptor
  Ki: 2870 ± 520 nM
[6]; analog 10 μM, ET-1 alone 11.0 ± 2.1
  [3H]IP with ET-1 (0.1 nM): 10.9 ± 1.8 dpm × 10^3
[6]; listed as Cycle SS-octa
  effect on endothelin-1-stimulated increases in [3H]IP in C-6 cells: did not inhibit
[6]; listed as cyclo SS octa
  effect on endothelin-1-stimulated increases in [3H]IP in C-6 cells: no effect
PYY receptor
  inhibition of binding to PYY receptors: did not inhibit binding
NMB receptor [7]
  effect on NMB-stimulated increases in [3H]IP in C-6 cells: inhibited
NMB receptor [7]; analog 10 μM, 60 min 37° C., control 7.2 ± 1.0
  [3H]IP, no peptide added: 7.4 ± 1.3 dpm × 10^3
NMB receptor [7]; analog 10 μM, NMB alone 21.0 ± 1.8
  [3H]IP with NMB (10 nM): 7.5 ± 1.0 dpm × 10^3
α2-adrenergic receptor
  inhibition of binding to α2-adrenergic receptors: did not inhibit binding

## CC(C)[C@@H]1NC(=O)[C@H](CCCCN)NC(=O)[C@@H](Cc2ccc3ccccc3c2)NC(=O)[C@H](Cc2ccc(O)cc2)NC(=O)[C@@H](NC(=O)[C@H](N)Cc2ccc3ccccc3c2)CSSC[C@@H](C(=O)N[C@@H](Cc2ccc3ccccc3c2)C(N)=O)NC1=O [Analog #17, H2 -D-Nal-Cys-Tyr-D-Nal-Lys-Val-Cys-Nal-NH2] (H-[d2Nal]CY[d2Nal]KVC[2Nal]-NH2; disulfide 2-7)
NMB receptor [1]
  Ki: 850 ± 300 nM
[3]
  fold greater affinity for NMB than GRP receptors: > 100 fold
Rat NMB receptor
  Ki: 399 ± 68 nM
Rat NMB receptor; NMB-R transfected cells
  fold by which cyclo SS-octa is more potent than the analog, 125I-NMB binding: 2 fold
GRP receptor
  Ki: 3710 ± 200 nM

Source: patent US5462926A (Biomeasure, Inc., priority 1993, dated 1995)
